Measurements: patent publication US20120077836A1, “METHODS OF ADMINISTERING (4AR,10AR)-1-N-PROPYL-1,2,3,4,4A,5,10,10A-OCTAHYDROBENZO [G] QUINOLINE-6,7-DIOL AND RELATED COMPOUNDS ACROSS THE ORAL MUCOSA, THE NASAL MUCOSA OR THE SKIN AND PHARMACEUTICAL COMPOSITIONS THEREOF” (priority 2009, published 2012)
Counter-ions that a name gives are not always drawn. Like-named read-outs stand apart in the source and are kept apart here.

Assay: Intravenous and buccal pharmacokinetic study in the minipig
Format: in vivo
Details: male, Göttingen, in vivo
Method: The test article was compound 10. The vehicles for the test article were Sterile saline (0.9% NaCl) (intravenous administration) supplied by Baxter, Norfolk or Ascorbic acid reconstituted in Water for Injection (buccal administration) supplied by VWR International, Leicestershire. Formulations were prepared on the day of dosing.
Three male minipigs of the Göttingen ApS strain were supplied by Ellegaard Göttingen, Dalmose, Denmark. At initiation of dosing, animals were approximately 15 to 17 weeks old. Each animal was dosed once on three separate occasions according to the following study design:
Animals were deprived of food overnight and anaesthetised with isoflurane in oxygen (administered by facemask), prior to each dosing occasion.
Intravenous administrations were performed by slow manual injection via a temporary catheter placed in the ear vein whilst under anaesthesia, animals were allowed to recover from the anaesthesia immediately after dosing. Whilst anaesthetised, a catheter was inserted into the jugular vein and secured in place for the purpose of blood collection. The catheter was filled with heparin (250 iu/mL in 0.9% sodium chloride). The exterior portion of the catheter was routed from the ventral neck to the dorsum of the minipig and protected by bandaging. The distal end of the catheter was capped and placed in a re-sealable pouch within the bandage. The jugular catheter was retained in place and flushed with heparinised saline every 24 hours.
Buccal administrations were performed by applying the test formulation to the buccal membrane for 5 minutes while the animal was anaesthetised. Any residual formulation remaining in the mouth after the 5 minute application was […]. Animals were allowed to recover from the anaesthesia immediately after dosing.
, all animals on Day 3 following buccal administration of a low dose and all animals on Day 5 following buccal administration of a high dose for pharmacokinetic analysis. The samples (1.0 mL) were collected from the jugular vein (via catheter) into tubes containing EDTA anticoagulant. Prior to addition of the blood sample, 100 microL of a stabiliser (2% beta-mercaptoethanol containing 20 mg/mL ascorbic acid) was added to each pot. The stabiliser was prepared fresh on each day of sample collection. Samples were collected as follows: • Day 1: 5, 10, 15, 30 and 45 minutes and 1, 2, 4, 6, 8, 12 and 16 hours post-dose • Day 3: pre-dose and at 5, 10, 15, 30 and 45 minutes and 1, 2, 4, 6, 8, 12, 16 and 24 hours post-dose • Day 5: pre-dose and at 5, 10, 15, 30 and 45 minutes and 1, 2, 4, 6, 8, 12, 16 and 24 hours post-dose
The times of the blood sampling were generally adhered to. The greatest deviation from the scheduled timepoints was one minute late at the 5 minute timepoint on Day 3. The blood samples were centrifuged within one hour of sample collection and the resultant plasma was frozen prior to analysis.
The plasma concentrations of compound 10 were determined after solid phase extraction of the plasma samples followed by high performance liquid chromatography with tandem mass spectrometric detection (LC-MS/MS) using a sample volume of about 100 microL.
Internal standard solution, containing the internal standard of compound 10 was added to thawed plasma samples (100 microL aliquot). The SPE plate (Oasis HLB, 10 mg) was conditioned with methanol (500 microL) followed by water (500 microL). The sample (approx. 500 microL aliquot) was transferred to the pre-conditioned SPE plate. The sample was then passed through the cartridge, which was then washed with water:methanol (90:10 v/v, 0.5 mL). The sample was then eluted into a fresh 96 well polypropylene collection plate with 20 mM ammonium formate (aq): acetonitrile: formic acid (50:50:2 v/v/v, 250 microL). The organic component of the eluted samples was then evaporated under a gentle stream of nitrogen until approximately 50% of the original volume was remaining. […]

Q: Which concentration at 0.17 h (0.01 mg/kg, buccal 0.010 mg/kg, mean, read-out: Plasma concentration Day 3 Hour 0.17, Mean) does the source give for `CCCN1CCC[C@@H]2Cc3c(ccc(O)c3O)C[C@H]21` [compound 10, (4aR,10aR)-1-n-Propyl-1,2,3,4,4a,5,10,10a-octahydro-benzo[g]quinoline-6,7-diol hydrobromide] here?
A: 0.148 ng/mL

Q: And the concentration at 0.25 h (0.01 mg/kg, buccal 0.010 mg/kg, mean, read-out: Plasma concentration Day 3 Hour 0.25, Mean)?
A: 0.314 ng/mL

Q: And the concentration at 0.5 h (0.01 mg/kg, buccal 0.010 mg/kg, mean, read-out: Plasma concentration Day 3 Hour 0.5, Mean)?
A: 0.752 ng/mL

Q: What about the concentration at 0.75 h (0.01 mg/kg, buccal 0.010 mg/kg, mean, read-out: Plasma concentration Day 3 Hour 0.75, Mean) of the same compound?
A: 1.04 ng/mL

Q: And the concentration at 1 h (0.01 mg/kg, buccal 0.010 mg/kg, mean, read-out: Plasma concentration Day 3 Hour 1, Mean)?
A: 0.869 ng/mL

Q: And the concentration at 2 h (0.01 mg/kg, buccal 0.010 mg/kg, mean, read-out: Plasma concentration Day 3 Hour 2, Mean)?
A: 0.487 ng/mL

Q: And the bioavailability (0.01 mg/kg, buccal 0.010 mg/kg, range, read-out: bioavailability)?
A: 30 to 42%

Q: And the bioavailability (0.01 mg/kg, buccal 0.010 mg/kg, read-out: bioavailability, mean values)?
A: 31 to 35%

Q: What about the half-life (0.01 mg/kg, buccal 0.010 mg/kg, read-out: mean apparent terminal half-life (converted)) of the same compound?
A: 5.1 h

Q: And the Tmax (0.04 mg/kg, buccal 0.040 mg/kg, animal 1)?
A: 1 h

Q: What about the concentration at 0.5 h (0.04 mg/kg, buccal 0.040 mg/kg, individual animals 1-3, read-out: Plasma concentration Day 5 Hour 0.5) of the same compound?
A: 7.88 ng/mL

Q: And the concentration at 0.75 h (0.04 mg/kg, buccal 0.040 mg/kg, individual animals 1-3, read-out: Plasma concentration Day 5 Hour 0.75)?
A: 15.9 ng/mL

Q: And the concentration at 1 h (0.04 mg/kg, buccal 0.040 mg/kg, individual animals 1-3, read-out: Plasma concentration Day 5 Hour 1)?
A: 11.9 ng/mL

Q: And the concentration at 4 h (0.04 mg/kg, buccal 0.040 mg/kg, mean, read-out: Plasma concentration Day 1 Hour 4, Mean)?
A: 1.93 ng/mL

Q: What about the concentration at 6 h (0.04 mg/kg, buccal 0.040 mg/kg, mean, read-out: Plasma concentration Day 1 Hour 6, Mean) of the same compound?
A: 0.93 ng/mL

Q: And the concentration at 8 h (0.04 mg/kg, buccal 0.040 mg/kg, mean, read-out: Plasma concentration Day 1 Hour 8, Mean)?
A: 0.522 ng/mL

Q: And the concentration at 12 h (0.04 mg/kg, buccal 0.040 mg/kg, mean, read-out: Plasma concentration Day 1 Hour 12, Mean)?
A: 0.604 ng/mL

Q: And the concentration at 16 h (0.04 mg/kg, buccal 0.040 mg/kg, mean, read-out: Plasma concentration Day 1 Hour 16, Mean)?
A: 0.292 ng/mL

Q: What about the concentration at 24 h (0.04 mg/kg, buccal 0.040 mg/kg, mean, read-out: Plasma concentration Day 1 Hour 24, Mean) of the same compound?
A: 0.119 ng/mL

Q: What about the concentration at 0.08 h (0.04 mg/kg, buccal 0.040 mg/kg, mean, read-out: Plasma concentration Day 5 Hour 0.08, Mean) of the same compound?
A: 1.29 ng/mL

Q: What about the concentration at 0.17 h (0.04 mg/kg, buccal 0.040 mg/kg, mean, read-out: Plasma concentration Day 5 Hour 0.17, Mean) of the same compound?
A: 3.27 ng/mL

Q: What about the concentration at 0.25 h (0.04 mg/kg, buccal 0.040 mg/kg, mean, read-out: Plasma concentration Day 5 Hour 0.25, Mean) of the same compound?
A: 5.45 ng/mL

Q: And the concentration at 0.5 h (0.04 mg/kg, buccal 0.040 mg/kg, mean, read-out: Plasma concentration Day 5 Hour 0.5, Mean)?
A: 7.14 ng/mL

Q: What about the concentration at 0.75 h (0.04 mg/kg, buccal 0.040 mg/kg, mean, read-out: Plasma concentration Day 5 Hour 0.75, Mean) of the same compound?
A: 12.4 ng/mL

Q: And the concentration at 1 h (0.04 mg/kg, buccal 0.040 mg/kg, mean, read-out: Plasma concentration Day 5 Hour 1, Mean)?
A: 10.8 ng/mL

Q: What about the concentration at 2 h (0.04 mg/kg, buccal 0.040 mg/kg, mean, read-out: Plasma concentration Day 5 Hour 2, Mean) of the same compound?
A: 6.3 ng/mL

Q: What about the bioavailability (0.04 mg/kg, buccal 0.040 mg/kg, range, read-out: bioavailability) of the same compound?
A: 73 to 136%

Q: And the bioavailability (0.04 mg/kg, buccal 0.040 mg/kg, read-out: bioavailability, mean values)?
A: 105 to 122%

Q: What about the half-life (0.04 mg/kg, buccal 0.040 mg/kg, read-out: mean apparent terminal half-life (converted)) of the same compound?
A: 5.6 h

Q: And the half-life (IV bolus 0.0025 mg/kg, range of animals, read-out: apparent terminal elimination half-life (t½))?
A: 3.4 to 4.3 h

Q: What about the half-life (IV bolus 0.025 mg/kg (as printed in conclusion), read-out: individual apparent terminal elimination half-life) of the same compound?
A: 3.4 to 4.3 h

Q: What about the half-life (buccal, range in individual animals, read-out: apparent terminal elimination half-life) of the same compound?
A: 3.1 to 5.6 h

Q: What about the concentration at 0.08 h (iv, 0.0025 mg/kg, IV 0.0025 mg/kg, individual animals 1-3, read-out: Plasma concentration Day 1 Hour 0.08) of the same compound?
A: 1.21 ng/mL

Q: What about the concentration at 0.17 h (iv, 0.0025 mg/kg, IV 0.0025 mg/kg, individual animals 1-3, read-out: Plasma concentration Day 1 Hour 0.17) of the same compound?
A: 0.834 ng/mL

Q: What about the concentration at 0.25 h (iv, 0.0025 mg/kg, IV 0.0025 mg/kg, individual animals 1-3, read-out: Plasma concentration Day 1 Hour 0.25) of the same compound?
A: 0.74 ng/mL

Q: And the concentration at 0.5 h (iv, 0.0025 mg/kg, IV 0.0025 mg/kg, individual animals 1-3, read-out: Plasma concentration Day 1 Hour 0.5)?
A: 0.562 ng/mL

Q: And the concentration at 0.75 h (iv, 0.0025 mg/kg, IV 0.0025 mg/kg, individual animals 1-3, read-out: Plasma concentration Day 1 Hour 0.75)?
A: 0.534 ng/mL

Q: And the concentration at 1 h (iv, 0.0025 mg/kg, IV 0.0025 mg/kg, individual animals 1-3, read-out: Plasma concentration Day 1 Hour 1)?
A: 0.379 ng/mL

Q: What about the concentration at 2 h (iv, 0.0025 mg/kg, IV 0.0025 mg/kg, individual animals 1-3, read-out: Plasma concentration Day 1 Hour 2) of the same compound?
A: 0.198 ng/mL

Q: What about the concentration at 4 h (iv, 0.0025 mg/kg, IV 0.0025 mg/kg, individual animals 1-3, read-out: Plasma concentration Day 1 Hour 4) of the same compound?
A: 0.0748 ng/mL

Q: And the concentration at 6 h (iv, 0.0025 mg/kg, IV 0.0025 mg/kg, individual animals 1-3, read-out: Plasma concentration Day 1 Hour 6)?
A: 0.0476 ng/mL

Q: What about the concentration at 8 h (iv, 0.0025 mg/kg, IV 0.0025 mg/kg, individual animals 1-3, read-out: Plasma concentration Day 1 Hour 8) of the same compound?
A: 0.0245 ng/mL

Q: And the concentration at 12 h (iv, 0.0025 mg/kg, IV 0.0025 mg/kg, individual animals 1-3, read-out: Plasma concentration Day 1 Hour 12)?
A: 0.017 ng/mL

Q: And the concentration at 16 h (iv, 0.0025 mg/kg, IV 0.0025 mg/kg, individual animals 1-3, values below LLOQ 10 pg/mL estimated, read-out: Plasma concentration Day 1 Hour 16)?
A: 0.00858 ng/mL

Q: And the concentration at 0.08 h (iv, 0.0025 mg/kg, IV 0.0025 mg/kg, mean, read-out: Plasma concentration Day 1 Hour 0.08, Mean)?
A: 1.62 ng/mL

Q: And the concentration at 0.17 h (iv, 0.0025 mg/kg, IV 0.0025 mg/kg, mean, read-out: Plasma concentration Day 1 Hour 0.17, Mean)?
A: 1.02 ng/mL

Q: And the concentration at 0.25 h (iv, 0.0025 mg/kg, IV 0.0025 mg/kg, mean, read-out: Plasma concentration Day 1 Hour 0.25, Mean)?
A: 0.913 ng/mL

Q: And the concentration at 0.5 h (iv, 0.0025 mg/kg, IV 0.0025 mg/kg, mean, read-out: Plasma concentration Day 1 Hour 0.5, Mean)?
A: 0.673 ng/mL

Q: And the concentration at 0.75 h (iv, 0.0025 mg/kg, IV 0.0025 mg/kg, mean, read-out: Plasma concentration Day 1 Hour 0.75, Mean)?
A: 0.619 ng/mL

Q: And the concentration at 1 h (iv, 0.0025 mg/kg, IV 0.0025 mg/kg, mean, read-out: Plasma concentration Day 1 Hour 1, Mean)?
A: 0.421 ng/mL

Q: What about the concentration at 2 h (iv, 0.0025 mg/kg, IV 0.0025 mg/kg, mean, read-out: Plasma concentration Day 1 Hour 2, Mean) of the same compound?
A: 0.249 ng/mL

Q: What about the concentration at 4 h (iv, 0.0025 mg/kg, IV 0.0025 mg/kg, mean, read-out: Plasma concentration Day 1 Hour 4, Mean) of the same compound?
A: 0.0887 ng/mL

Q: What about the concentration at 6 h (iv, 0.0025 mg/kg, IV 0.0025 mg/kg, mean, read-out: Plasma concentration Day 1 Hour 6, Mean) of the same compound?
A: 0.0598 ng/mL

Q: And the concentration at 8 h (iv, 0.0025 mg/kg, IV 0.0025 mg/kg, mean, read-out: Plasma concentration Day 1 Hour 8, Mean)?
A: 0.033 ng/mL

Q: What about the concentration at 12 h (iv, 0.0025 mg/kg, IV 0.0025 mg/kg, mean, read-out: Plasma concentration Day 1 Hour 12, Mean) of the same compound?
A: 0.0226 ng/mL

Q: And the concentration at 16 h (iv, 0.0025 mg/kg, IV 0.0025 mg/kg, mean, read-out: Plasma concentration Day 1 Hour 16, Mean)?
A: 0.00931 ng/mL
